According to the supplement of paper PMC10307832:

Tests used:
Experiment in all cases: relative viability (nuclei count vs DMSO), 5 days (fraction); higher = more cells survive
NCI-H3122 = system: NCI-H3122
Summary of the method: (§1)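 Relative viability is defined as nuclei in treated wells over nuclei in vehicle wells. Duplicate plates were run and medians reported. Lung cancer cell lines in 1536-well plates were dosed by pin tool one day after seeding, with one drug or with a fixed anchor-drug dose plus five library-drug doses (not always all listed) in √10 steps, and nuclei were counted after 5 days.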

NCI-H2085 = system: NCI-H2085
Summary of the method: as §1

NCI-H2023 = system: NCI-H2023
Summary of the method: as §1

SW 1573 = system: SW 1573
Summary of the method: as §1

NCI-H1793 = system: NCI-H1793
Summary of the method: as §1

HCC-44 = system: HCC-44
Summary of the method: as §1

NCI-H1355 = system: NCI-H1355
Summary of the method: as §1

HCC-827 = system: HCC-827
Summary of the method: as §1

ABC-1 = system: ABC-1
Summary of the method: as §1

COR-L23 = system: COR-L23
Summary of the method: as §1

NCI-H2228 = system: NCI-H2228
Summary of the method: as §1

Question: What does the source list for `CCNC(=O)c1noc(-c2cc(C(C)C)c(O)cc2O)c1-c1ccc(CN2CCOCC2)cc1` [Luminespib] + O=C(c1cc(Cc2n[nH]c(=O)c3ccccc23)ccc1F)N1CCN(C(=O)C2CC2)CC1 [Olaparib] (partner 8 µM)?
Answer: relative viability (NCI-H3122; first compound 0.002 µM): 0.626; relative viability (NCI-H3122; first compound 0.006325 µM): 0.567; relative viability (NCI-H3122; first compound 0.02 µM): 0.68; relative viability (NCI-H3122; first compound 0.06325 µM): 0.56; relative viability (NCI-H3122; first compound 0.2 µM): 0.646; relative viability (NCI-H2085; first compound 0.002 µM): 0.78; relative viability (NCI-H2085; first compound 0.006325 µM): 0.742; relative viability (NCI-H2085; first compound 0.02 µM): 0.766; relative viability (NCI-H2085; first compound 0.06325 µM): 0.425; relative viability (NCI-H2085; first compound 0.2 µM): 0.337; relative viability (NCI-H2023; first compound 0.002 µM): 0.459; relative viability (NCI-H2023; first compound 0.006325 µM): 0.418; relative viability (NCI-H2023; first compound 0.02 µM): 0.219; relative viability (NCI-H2023; first compound 0.06325 µM): 0.056; relative viability (NCI-H2023; first compound 0.2 µM): 0.0536; relative viability (SW 1573; first compound 0.002 µM): 0.445; relative viability (SW 1573; first compound 0.006325 µM): 0.4; relative viability (SW 1573; first compound 0.02 µM): 0.165; relative viability (SW 1573; first compound 0.06325 µM): 0.101; relative viability (SW 1573; first compound 0.2 µM): 0.0793; relative viability (NCI-H1793; first compound 0.002 µM): 0.999; relative viability (NCI-H1793; first compound 0.006325 µM): 0.975; relative viability (NCI-H1793; first compound 0.02 µM): 0.7; relative viability (NCI-H1793; first compound 0.06325 µM): 0.117; relative viability (NCI-H1793; first compound 0.2 µM): 0.167; relative viability (HCC-44; first compound 0.002 µM): 0.981; relative viability (HCC-44; first compound 0.006325 µM): 0.952; relative viability (HCC-44; first compound 0.02 µM): 1.07; relative viability (HCC-44; first compound 0.06325 µM): 0.944; relative viability (HCC-44; first compound 0.2 µM): 0.52; relative viability (NCI-H1355; first compound 0.002 µM): 0.757; relative viability (NCI-H1355; first compound 0.006325 µM): 0.695; relative viability (NCI-H1355; first compound 0.02 µM): 0.611; relative viability (NCI-H1355; first compound 0.06325 µM): 0.188; relative viability (NCI-H1355; first compound 0.2 µM): 0.149; relative viability (HCC-827; first compound 0.002 µM): 0.595; relative viability (HCC-827; first compound 0.006325 µM): 0.64; relative viability (HCC-827; first compound 0.02 µM): 0.537; relative viability (HCC-827; first compound 0.06325 µM): 0.143; relative viability (HCC-827; first compound 0.2 µM): 0.167; relative viability (ABC-1; first compound 0.002 µM): 0.928; relative viability (ABC-1; first compound 0.006325 µM): 1.02; relative viability (ABC-1; first compound 0.02 µM): 0.526; relative viability (ABC-1; first compound 0.06325 µM): 0.337; relative viability (ABC-1; first compound 0.2 µM): 0.244; relative viability (COR-L23; first compound 0.002 µM): 0.371; relative viability (COR-L23; first compound 0.006325 µM): 0.344; relative viability (COR-L23; first compound 0.02 µM): 0.482; relative viability (COR-L23; first compound 0.06325 µM): 0.0712; relative viability (COR-L23; first compound 0.2 µM): 0.0572; relative viability (NCI-H2228; first compound 0.002 µM): 0.595; relative viability (NCI-H2228; first compound 0.006325 µM): 0.638; relative viability (NCI-H2228; first compound 0.02 µM): 0.326; relative viability (NCI-H2228; first compound 0.06325 µM): 0.128; relative viability (NCI-H2228; first compound 0.2 µM): 0.142
